Earlier results on 1 compound are cited in patent publication US7132111B2, “Odorless formulation for treating mucosal discontinuities” (Epien Medical, Inc., priority 2003, dated 2006).

The series has as its system aphthous ulcers. The note with it: applied locally, three times a day.

Each structure is given as a SMILES string.

With `CN(C)[C@@H]1C(O)=C(C(N)=O)C(=O)[C@@]2(O)C(O)=C3C(=O)c4c(O)ccc(Cl)c4[C@@](C)(O)[C@H]3C[C@@H]12` [Aureomycin], the “duration of analgesic effect” value is “one half to two”. Further, under “reduced from about 10 days”, the “duration of the ulcers with treatment” value is given as roughly 5 days.
